Measured values reported in ChEMBL document CHEMBL1150895, “Spongiacidins A-D, new bromopyrrole alkaloids from hymeniacidon sponge” (J Nat Prod, 1998).

How the values were obtained:
[1] = molecular target: Receptor tyrosine-protein kinase erbB-2 (Homo sapiens, UniProt P04626); test: Inhibition of c-erbB-2
[2] = molecular target: Cyclin-dependent kinase 4 (Homo sapiens, UniProt P11802); test: Inhibition of CDK4
Chain of Cyclin-dependent kinase 4 (P11802 whole entry): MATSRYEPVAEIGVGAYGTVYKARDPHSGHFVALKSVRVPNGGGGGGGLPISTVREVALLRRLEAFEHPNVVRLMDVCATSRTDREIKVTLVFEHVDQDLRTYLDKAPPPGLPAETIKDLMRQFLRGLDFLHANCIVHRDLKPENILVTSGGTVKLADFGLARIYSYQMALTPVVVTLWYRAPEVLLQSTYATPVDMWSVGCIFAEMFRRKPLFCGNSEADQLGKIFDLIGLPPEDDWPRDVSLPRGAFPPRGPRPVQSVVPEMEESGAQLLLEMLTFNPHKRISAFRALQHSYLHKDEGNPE

Chain of Receptor tyrosine-protein kinase erbB-2 (P04626 whole entry): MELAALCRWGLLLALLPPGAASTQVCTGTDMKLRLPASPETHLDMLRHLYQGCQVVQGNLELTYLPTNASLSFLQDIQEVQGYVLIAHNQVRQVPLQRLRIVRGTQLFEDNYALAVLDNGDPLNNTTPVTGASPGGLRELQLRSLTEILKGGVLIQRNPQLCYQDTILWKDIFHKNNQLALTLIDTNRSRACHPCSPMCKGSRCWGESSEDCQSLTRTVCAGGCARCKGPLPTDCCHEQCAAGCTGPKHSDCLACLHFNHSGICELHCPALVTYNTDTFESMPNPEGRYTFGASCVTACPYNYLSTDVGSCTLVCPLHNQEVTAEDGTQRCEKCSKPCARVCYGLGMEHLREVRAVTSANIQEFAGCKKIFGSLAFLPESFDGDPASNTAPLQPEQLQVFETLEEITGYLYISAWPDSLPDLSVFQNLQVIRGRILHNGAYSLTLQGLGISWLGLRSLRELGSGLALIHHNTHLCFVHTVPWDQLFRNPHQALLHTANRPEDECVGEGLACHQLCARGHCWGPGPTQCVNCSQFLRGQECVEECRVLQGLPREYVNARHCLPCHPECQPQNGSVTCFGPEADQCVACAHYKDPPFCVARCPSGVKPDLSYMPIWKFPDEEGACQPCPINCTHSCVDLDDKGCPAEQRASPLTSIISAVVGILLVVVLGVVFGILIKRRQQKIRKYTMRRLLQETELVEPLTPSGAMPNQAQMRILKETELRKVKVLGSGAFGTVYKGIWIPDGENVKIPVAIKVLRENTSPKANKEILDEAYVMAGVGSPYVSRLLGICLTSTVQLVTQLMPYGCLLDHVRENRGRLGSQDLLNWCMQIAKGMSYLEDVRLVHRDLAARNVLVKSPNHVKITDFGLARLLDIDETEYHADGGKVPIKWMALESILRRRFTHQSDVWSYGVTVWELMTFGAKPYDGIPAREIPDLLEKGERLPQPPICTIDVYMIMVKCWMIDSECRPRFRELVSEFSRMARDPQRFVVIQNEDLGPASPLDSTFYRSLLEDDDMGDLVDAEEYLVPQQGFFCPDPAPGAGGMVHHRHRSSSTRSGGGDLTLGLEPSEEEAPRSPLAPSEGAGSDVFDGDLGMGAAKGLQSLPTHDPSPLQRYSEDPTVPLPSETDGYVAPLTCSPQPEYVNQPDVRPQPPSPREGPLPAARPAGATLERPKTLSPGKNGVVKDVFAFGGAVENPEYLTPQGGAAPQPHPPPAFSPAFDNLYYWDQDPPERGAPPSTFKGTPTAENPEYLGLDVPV

SMILES	IC50 [1]	IC50 [2]
O=C1NC(=O)/C(=C2\CCNC(=O)c3[nH]c(Br)cc32)N1 [SPONGIACIDIN D]	> 154 µM	> 154 µM
O=C1NC(=O)/C(=C2\CCNC(=O)c3[nH]ccc32)N1 [SPONGIACIDIN C]	> 203 µM	> 203 µM
